Reference: patent US20120329832A1, “Novel Insect-Repellent Coumarin Derivatives, Syntheses, and Methods of Use” (priority 2011, published 2012)
Read-outs that look alike come from different tables or passages of the source.

What was measured:
drosophila = experiment: Tests in vivo on drosophila: two-tube repellency test, Repulsive Index; design: key to RI against drosophila (FIG. 1) / RI (FIG. 2 and 3): RI = (N1−N2)/(N1+N2); N1 solvent tube, N2 compound tube; settings: for repellent activity compared with DEET, in words: 1% concentration in EtOH; for repellent or attractant activity against drosophila, in words: in vivo; for RI against drosophila (FIG. 1): concentration not given
Description: Description of Test system. To evaluate repellent efficacy, compounds were added to test chambers, each containing 40 drosophila. The test was performed in 3 phases: 1) fast (flies aspirated to test tubes); 2) implementation of the system (addition of filter paper, addition of solvent containing test compound); and 3) counting of the flies (after 22 hours exposure to test compound). The number of drosophila in each tube were counted: number of flies in the “filter paper+Solvent” tube was designated N1 and the number of flies in the “filter paper impregnated with test compound” was designated N2.
The Repulsive Index (R1) is given by the following equation: (N1−N2)/(N1+N2).

Aedes mosquitoes = settings: cited from earlier work
Culex = settings: cited from earlier work
mosquitoes = settings: absence of body odor attractants such as 1-octen-3-ol, lactic acid, or carbon dioxide; cited from earlier work
acetylcholinesterase = settings: insects and mammals; cited from earlier work
[1] = reported by US EPA; cited from earlier work
[2] = 10% solution of product, share of drosophila in EtOH tube
[3] = 10% solution of product, share of drosophila in product tube versus EtOH tube
[4] = 20% solution of product, share of drosophila in EtOH tube
[5] = 20% solution of product, share of drosophila in product tube versus EtOH tube
[6] = share of drosophila in product tube versus EtOH tube after 22 hours, product concentration not given
[7] = share of drosophila in solvent tube (filter paper + EtOH) after 22 hours, product concentration not given

SMILES	In vivo tests: Tube EtOH (drosophila; [2]) [%]	In vivo tests: Tube product (drosophila; [3]) [%]	In vivo tests: Tube EtOH (drosophila; [4]) [%]	In vivo tests: Tube product (drosophila; [5]) [%]	repellent or attractant activity against drosophila, in words (drosophila)	also measured
CCC(CC)Oc1cc(=O)oc2ccccc12 [EV06062]	93.10	6.90	98.26	1.74	–	repellent activity compared with DEET, in words (drosophila): remains as good a repellent as DEET; In vivo tests: Tube EtOH (drosophila; 1% solution of product, share of drosophila in EtOH tube): 87.08%; In vivo tests: Tube product (drosophila; 1% solution of product, share of drosophila in product tube versus EtOH tube): 12.92%; In vivo tests: Tube EtOH (drosophila; 5% solution of product, share of drosophila in EtOH tube): 96.08%; In vivo tests: Tube product (drosophila; 5% solution of product, share of drosophila in product tube versus EtOH tube): 3.20%; Repulsive Index (RI) (drosophila; EtOH, fourth Tested Concentration, 0.056 mmol/mL (1% solution)): 0.742
CCCCCCC(C)Oc1ccc2ccc(=O)oc2c1 (stereo not drawn) [EV06148]	93.66	6.34	96.00	4.00	–	repellent activity compared with DEET, in words (drosophila): remained as effective a repellent as DEET
CCCCCCCCN(CCCCCCCC)C(=O)COc1ccc2ccc(=O)oc2c1 [EV06092]	–	–	–	–	–	In vivo tests: Tube product (drosophila; [6]): 32.34%; In vivo tests: Tube EtOH (drosophila; [7]): 67.66%
CCCC(C)Oc1ccc2ccc(=O)oc2c1 (stereo not drawn) [EV06044]	83.91	16.08	96.12	3.82	significant repellent activity	–
CC(C)C(C)Oc1cc(=O)oc2ccccc12 (stereo not drawn) [EV06128]	–	–	66.83	33.17	–	–
CCCCCCOc1ccc2ccc(=O)oc2c1 [EV06110]	91.09	8.91	89.06	10.94	–	–
C=CCOc1ccc2ccc(=O)oc2c1 [EV04032]	–	–	–	–	–	In vivo tests: Tube AcOEt (drosophila; share of drosophila in solvent tube (AcOEt), product concentration not given): 62.25%
CC(C)CCOc1cc(=O)oc2ccccc12 [EV06140]	90.10	9.90	91.92	8.08	–	–
CCC(C)Oc1ccc2ccc(=O)oc2c1 (stereo not drawn) [EV04070]	92.79	7.21	91.34	8.66	significant repellent activity	–
CCCCCCCCN(CCCCCCCC)C(=O)c1ccc2ccc(=O)oc2c1 [EV06096]	67.84	32.16	95.33	4.67	acted as repellents	–
CC(C)(C)COc1ccc2ccc(=O)oc2c1 [EV06162]	–	–	–	–	strong drosophila attractant	–
CC(=O)OC(C)C(=O)Oc1ccc2ccc(=O)oc2c1 (stereo not drawn) [EV04122]	–	–	–	–	–	In vivo tests: Tube product (drosophila; [6]): 68.18%; In vivo tests: Tube EtOH (drosophila; [7]): 31.82%
CCCC(C)Oc1ccc2oc(=O)ccc2c1 (stereo not drawn) [EV06154]	93.03	6.97	96.57	3.43	–	repellent activity compared with DEET, in words (drosophila): performed effectively as a repellent
CCC(C)OC(=O)N1CCCCC1CCO (stereo not drawn) [picaridine, hydroxyethyl isobutyl piperidine carboxylate]	–	–	–	–	–	protection against Aedes mosquitoes (Aedes mosquitoes; 7% solution): little or no protection; protection time against Aedes (Aedes mosquitoes; 15% solution): about one; RI against drosophila (FIG. 1) (drosophila): > 0.6; protection time against Culex (Culex; 7% solution): about 2.5 hours; protection time against Culex (Culex; 15% solution): 4.8 h
CCC(C)NC(=O)COc1ccc2ccc(=O)oc2c1 (stereo not drawn) [EV06178]	–	–	–	–	appeared to provide attractant activity	RI against drosophila (FIG. 1) (drosophila): ~−0.2
CCN(CC)C(=O)c1cccc(C)c1 [DEET, N,N-Diethyl-meta-toluamide]	–	–	–	–	–	repellent activity in behavioral test, in words (mosquitoes): strong repellent activity; RI against drosophila (FIG. 1) (drosophila): > 0.9; activity on acetylcholinesterase, in words (acetylcholinesterase): inhibit the activity; deaths among the potential DEET-associated seizure cases [1]: 4 deaths
CCCCN(CCCC)C(=O)COc1ccc2ccc(=O)oc2c1 [EV05120]	90.36	9.64	85.58	14.42	acted as repellents	RI (FIG. 2 and 3) (drosophila; 10% solution in EtOH): ~0.8; RI (FIG. 2 and 3) (drosophila; 20% solution in EtOH): ~0.7
